Assay results published in the supplement of paper PMC10307832.

Experiments:
Assay in all cases: relative viability (nuclei count vs DMSO), 5 days (fraction); higher = more cells survive
[1] = compound: CN1C=C(C2=CC=CC=C21)/C=C\3/C4=C(C=CC=N4)NC3=O
Summary of the method: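 MetaXpress counted nuclei in 4× images of lung cancer cell lines that had been fixed, permeabilised and Hoechst-stained in one step. Before that, cells in 1536-well plates were kept overnight at 37 °C, pinned with five √10-spaced library-drug doses on vehicle-anchored plates, and cultured 5 days without medium change. Viability takes treated-well nuclei over vehicle-well nuclei and uses the median across plates. Plates were accepted only at control CV below 25% and at least one doubling.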

[2] = compound: CN1C=C(C2=CC=CC=C21)/C=C\3/C4=C(C=CC=N4)NC3=O + Cc1cc(Nc2cc(N3CCN(C)CC3)nc(Sc3ccc(NC(=O)C4CC4)cc3)n2)n[nH]1 [Tozasertib] (partner 0.1 µM)
Summary of the method: (§1)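 The day after seeding in 1536-well plates, lung cancer cell lines were treated by pin tool with a single drug, or with a fixed anchor-drug dose together with five library-drug doses (not always all listed) in √10 steps. After 5 days, a combined fix-and-stain solution (final 0.05% Triton X-100, 1% formaldehyde, 1 ug/ml Hoechst) was added. Nuclei counted on 4× images gave relative viability as treated counts over vehicle counts, reported as the median of duplicate plates.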

Trametinib + Phenformin = compound: CC(=O)Nc1cccc(-n2c(=O)n(C3CC3)c(=O)c3c(Nc4ccc(I)cc4F)n(C)c(=O)c(C)c32)c1 [Trametinib] + N=C(N)NC(=N)NCCc1ccccc1 [Phenformin] (partner 250 µM)
Summary of the method: as §1

[3] = compound: CN1C=C(C2=CC=CC=C21)/C=C\3/C4=C(C=CC=N4)NC3=O + CS(=O)(=O)CCNCc1ccc(-c2ccc3ncnc(Nc4ccc(OCc5cccc(F)c5)c(Cl)c4)c3c2)o1 [Lapatinib] (partner 2 µM)
Summary of the method: as §1

Cell Line | relative viability ([1]; 0.02 µM) | relative viability ([1]; 0.06325 µM) | relative viability ([1]; 0.2 µM) | relative viability ([1]; 0.6325 µM) | relative viability ([1]; 2 µM) | relative viability ([2]; first compound 0.02 µM) | relative viability ([2]; first compound 0.06325 µM) | relative viability ([2]; first compound 0.6325 µM) | relative viability ([2]; first compound 2 µM) | relative viability (Trametinib + Phenformin; first compound 0.0025 µM) | relative viability (Trametinib + Phenformin; first compound 0.007906 µM) | relative viability (Trametinib + Phenformin; first compound 0.025 µM) | relative viability (Trametinib + Phenformin; first compound 0.07906 µM) | relative viability (Trametinib + Phenformin; first compound 0.25 µM) | relative viability ([3]; first compound 0.02 µM) | relative viability ([3]; first compound 0.06325 µM) | relative viability ([3]; first compound 0.2 µM) | relative viability ([3]; first compound 0.6325 µM) | relative viability ([3]; first compound 2 µM) | relative viability ([2]; first compound 0.2 µM)
HCC-44 | 0.902 | 0.906 | 0.87 | 0.991 | 0.935 | 0.918 | 0.887 | 1.13 | 0.944 | 0.249 | 0.181 | 0.187 | 0.0805 | 0.0783 | 0.912 | 0.963 | 0.928 | 0.834 | 0.9 | 
HCC-78 | 0.81 | 0.905 | 0.731 | 0.803 | 0.889 | 0.386 | 0.424 | 0.271 | 0.426 | 0.678 | 0.501 | 0.482 | 0.489 | 0.401 | 0.965 | 0.288 | 0.46 | 0.53 | 0.689 | 
HCC-366 | 1.01 | 1 | 0.923 | 1.1 | 1.02 | 0.09 | 0.109 | 0.0587 | 0.0526 | 0.57 | 0.574 | 0.372 | 0.49 | 0.226 | 0.816 | 0.976 | 0.952 | 1.15 | 1.08 | 0.0765
HCC-827 | 0.94 | 0.978 |  | 1.11 | 1.06 | 0.378 | 0.405 | 0.53 | 0.395 | 0.374 | 0.373 | 0.334 | 0.313 | 0.313 | 0.21 | 0.185 |  | 0.159 | 0.179 | 
HOP-62 | 0.992 | 1.03 | 0.805 | 1.02 | 0.938 | 0.31 | 0.359 | 0.406 | 0.422 | 0.692 | 0.643 | 0.441 | 0.331 | 0.209 | 1.28 | 1.21 | 0.688 | 0.882 | 1.06 | 0.412
IA-LM | 0.978 | 0.934 | 0.945 | 0.811 | 0.878 |  |  |  |  |  |  |  |  |  | 0.947 | 0.617 | 0.546 | 0.65 | 0.448 | 
LC-2-ad | 0.988 | 0.995 | 0.786 | 1 | 0.959 | 0.43 | 0.435 | 0.453 | 0.492 | 0.625 | 0.543 | 0.5 | 0.427 | 0.338 | 0.834 | 0.935 | 0.89 | 1.05 | 1 | 0.482
LCLC-97TM1 | 0.701 | 0.844 | 0.717 | 1.11 | 0.922 | 0.132 | 0.196 | 0.332 | 0.252 | 0.415 | 0.448 | 0.383 | 0.301 | 0.288 | 0.696 |  |  | 0.882 | 0.948 | 0.181
LCLC-103H | 0.963 | 0.933 | 0.976 | 0.98 | 0.959 | 0.313 | 0.506 | 0.511 | 0.536 | 0.319 | 0.349 | 0.318 | 0.269 | 0.307 |  |  |  |  |  | 0.475
LK-2 |  | 0.697 | 0.652 | 0.776 | 0.975 |  |  | 0.164 | 0.152 | 0.433 | 0.649 | 0.379 | 0.35 | 0.142 |  | 0.568 |  | 0.756 | 1.03 | 
LOU-NH91 | 0.902 | 0.825 | 0.844 | 0.856 | 0.95 | 0.567 | 0.661 | 0.688 | 0.657 | 0.685 | 0.752 | 0.661 | 0.364 | 0.294 | 0.578 | 0.577 | 0.59 | 0.601 | 0.668 | 0.621
NCI-H441 | 1.19 | 0.935 | 1.08 | 1.01 | 1.02 | 0.67 | 0.607 | 0.572 | 0.567 | 0.744 | 0.836 | 0.501 | 0.561 | 0.252 |  |  |  |  |  | 0.651
NCI-H522 | 0.89 | 1.13 | 0.869 | 0.944 | 0.883 | 0.562 | 0.575 | 0.283 | 0.556 | 0.575 | 0.657 | 0.506 | 0.574 | 0.434 |  |  |  |  |  | 0.518
NCI-H1299 | 1.01 | 1.01 | 1.02 | 1.05 | 1.02 |  |  |  |  |  |  |  |  |  | 0.979 | 0.974 | 0.989 | 1.03 | 0.979 | 
NCI-H1563 | 1.08 | 1 | 0.99 | 1.05 | 0.992 |  |  |  |  | 0.637 | 0.636 | 0.676 | 0.597 | 0.59 | 1.2 | 0.977 | 0.912 | 0.926 | 1.02 | 
NCI-H1623 | 0.815 | 1.02 | 0.735 | 0.85 | 0.912 | 0.384 | 0.431 | 0.384 | 0.497 | 0.588 | 0.48 | 0.291 | 0.396 | 0.634 |  |  |  |  |  | 0.358
NCI-H1648 | 0.603 | 0.885 | 0.812 | 0.601 | 0.671 |  | 0.435 | 0.387 | 0.372 |  |  |  |  |  |  |  |  |  |  | 0.435
NCI-H1703 | 0.943 | 0.827 | 0.8 | 0.9 | 0.776 |  |  |  |  |  |  |  |  |  | 0.962 | 0.941 | 1.11 | 1.25 | 1.29 | 
NCI-H1792 | 0.88 | 0.979 | 0.69 | 0.829 | 0.957 |  |  |  |  | 0.309 | 0.206 | 0.071 | 0.157 | 0.0553 | 0.588 | 0.96 | 0.8 |  | 0.672 | 
NCI-H2342 | 0.938 | 0.963 | 0.955 | 0.878 | 0.906 | 0.492 | 0.437 | 0.438 | 0.505 | 0.49 | 0.549 |  | 0.403 | 0.56 |  |  |  |  |  | 0.556
SW 900 | 0.969 | 0.79 |  | 1.02 | 0.987 | 0.468 | 0.531 | 0.452 | 0.389 | 0.579 | 0.532 | 0.457 | 0.487 | 0.143 |  |  |  |  |  | 
